Assay results reported in patent publication US9656971B2, “COMT inhibitors” (Hoffmann-La Roche Inc., priority 2012, dated 2017).
Read-outs that look alike come from different tables or passages of the source.

Target: T1, Rec. human COMT (Homo sapiens, UniProt P21964)
T1 sequence (P21964 1-271): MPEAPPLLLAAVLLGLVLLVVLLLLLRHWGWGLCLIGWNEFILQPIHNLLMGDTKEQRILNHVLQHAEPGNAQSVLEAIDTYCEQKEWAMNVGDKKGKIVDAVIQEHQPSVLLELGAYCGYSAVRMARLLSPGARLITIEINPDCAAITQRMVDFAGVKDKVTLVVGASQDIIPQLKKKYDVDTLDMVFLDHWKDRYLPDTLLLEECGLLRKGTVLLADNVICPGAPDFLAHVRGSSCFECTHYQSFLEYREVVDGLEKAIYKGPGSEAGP
Assay: COMT-Fluorescence Assay
Assay type: biochemical
Conditions: rec. human COMT 25 nM, 4-Nitrocatechol-Alexa488 200 nM, SAM 500 nM
Description: This intramolecular interaction is disturbed if the 4-Nitrocatechol is methylated. […] This increase of fluorescence intensity can be followed in a kinetic measurement. The slope in the linear range of the kinetic is calculated. An inhibitor compound decreases the slope.
Signal [rfu/min]=(rfu(end-point)−rfu(startpoint))/incubation_time_#2

[1] = COMT-fluorescence assay, read-out: IC50

IC50 [1] [nM]	Compound	IC50 (IC50, COMT-fluorescence assay) [nM]
80	COc1ncc(-c2cc(O)c3nc[nH]c(=O)c3c2)c(OC)n1 [Example 160, 6-(2,4-Dimethoxypyrimidin-5-yl)-8-hydroxyquinazolin-4(3H)-one]	–
50	COc1ccccc1-c1cc(O)c2nc[nH]c(=O)c2c1 [Example 161, 8-Hydroxy-6-(2-methoxyphenyl)quinazolin-4(3H)-one]	–
30	COc1ncccc1-c1cc(O)c2nc[nH]c(=O)c2c1 [Example 162, 8-Hydroxy-6-(2-methoxypyridin-3-yl)quinazolin-4(3H)-one]	–
40	COc1ccc(-c2cc(O)c3nc[nH]c(=O)c3c2)cn1 [Example 163, 8-Hydroxy-6-(6-methoxypyridin-3-yl)quinazolin-4(3H)-one]	–
20	Cc1cscc1-c1cc(O)c2nc[nH]c(=O)c2c1 [Example 164, 8-Hydroxy-6-(4-methylthiophen-3-yl)quinazolin-4(3H)-one]	–
30	Cc1cc(-c2cc(O)c3nc[nH]c(=O)c3c2)c(C)s1 [Example 165, 6-(2,5-Dimethylthiophen-3-yl)-8-hydroxyquinazolin-4(3H)-one]	–
60	Cc1ccc(-c2cc(O)c3nc[nH]c(=O)c3c2)cn1 [Example 166, 8-Hydroxy-6-(6-methylpyridin-3-yl)quinazolin-4(3H)-one]	–
260	O=c1[nH]cnc2c(O)cc(-c3cccc4cccnc34)cc12 [Example 167, 8-Hydroxy-6-(quinolin-8-yl)quinazolin-4(3H)-one]	–
30	O=c1[nH]cnc2c(O)cc(-c3cncc4ccccc34)cc12 [Example 168, 8-Hydroxy-6-(isoquinolin-4-yl)quinazolin-4(3H)-one]	–
40	O=c1[nH]cnc2c(O)cc(-c3ccc4ccccc4c3)cc12 [Example 169, 8-Hydroxy-6-(naphthalen-2-yl)quinazolin-4(3H)-one]	–
20	O=c1[nH]cnc2c(O)cc(-c3cccc4ccccc34)cc12 [Example 170, 8-Hydroxy-6-(naphthalen-1-yl)quinazolin-4(3H)-one]	–
80	O=c1[nH]cnc2c(O)cc(-c3ccc4c(c3)CCNC4)cc12 [Example 171, 8-Hydroxy-6-(1,2,3,4-tetrahydroisoquinolin-6-yl)quinazolin-4(3H)-one]	–
20	O=C(NCCN1CCOCC1)c1ccc(-c2cc(O)c3nc[nH]c(=O)c3c2)cc1 [Example 172, 4-(8-Hydroxy-4-oxo-3,4-dihydroquinazolin-6-yl)-N-(2-morpholinoethyl)benzamide]	–
50	CN(C)CCNC(=O)c1ccc(-c2cc(O)c3nc[nH]c(=O)c3c2)cc1 [Example 173, N-(2-(Dimethylamino)ethyl)-4-(8-hydroxy-4-oxo-3,4-dihydroquinazolin-6-yl)benzamide]	–
–	O=c1[nH]cnc2c(O)cc(-c3ccc4c(c3)CNCC4)cc12 [Example 174, 8-Hydroxy-6-(1,2,3,4-tetrahydroisoquinolin-7-yl)quinazolin-4(3H)-one]	70
20	O=C(c1cccc(-c2cc(O)c3nc[nH]c(=O)c3c2)c1)N1CCOCC1 [Example 175, 8-Hydroxy-6-(3-(morpholine-4-carbonyl)phenyl)quinazolin-4(3H)-one]	–
20	O=c1[nH]cnc2c(O)cc(-c3ccc4c(c3)OCCO4)cc12 [Example 176, 6-(2,3-Dihydrobenzo[b][1,4]dioxin-6-yl)-8-hydroxyquinazolin-4(3H)-one]	–
40	O=c1[nH]cnc2c(O)cc(-c3ccc4c(c3)OCO4)cc12 [Example 177, 6-(Benzo[d][1,3]dioxol-5-yl)-8-hydroxyquinazolin-4(3H)-one]	–
10	Cc1nc(C)c(-c2cc(O)c3nc[nH]c(=O)c3c2)s1 [Example 178, 6-(2,4-Dimethylthiazol-5-yl)-8-hydroxyquinazolin-4(3H)-one]	–
90	Cn1cc(-c2cc(O)c3nc[nH]c(=O)c3c2)cn1 [Example 179, 8-Hydroxy-6-(1-methyl-1H-pyrazol-4-yl)quinazolin-4(3H)-one]	–
270	O=c1[nH]cnc2c(O)cc(-c3cccnc3O)cc12 [Example 180, 8-Hydroxy-6-(2-hydroxypyridin-3-yl)quinazolin-4(3H)-one]	–
20	Cn1nccc1-c1cc(O)c2nc[nH]c(=O)c2c1 [Example 181, 8-Hydroxy-6-(1-methyl-1H-pyrazol-5-yl)quinazolin-4(3H)-one]	–
30	O=c1[nH]cnc2c(O)cc(-c3ccc(N4CCOCC4)nc3)cc12 [Example 182, 8-Hydroxy-6-(6-morpholinopyridin-3-yl)quinazolin-4(3H)-one]	–
70	CN(C)c1cccc(-c2cc(O)c3nc[nH]c(=O)c3c2)n1 [Example 183, 6-(6-(Dimethylamino)pyridin-2-yl)-8-hydroxyquinazolin-4(3H)-one]	–

IC50 [1] [nM]	Compound	IC50 (IC50, COMT-fluorescence assay) [nM]
20	O=c1[nH]cnc2c(O)cc(-c3ccc(N4CCNCC4)nc3)cc12 [Example 184, 8-Hydroxy-6-(6-(piperazin-1-yl)pyridin-3-yl)quinazolin-4(3H)-one]	–
20	O=c1[nH]cnc2c(O)cc(-c3ccnc(N4CCNCC4)c3)cc12 [Example 185, 8-Hydroxy-6-(2-(piperazin-1-yl)pyridin-4-yl)quinazolin-4(3H)-one]	–
30	O=c1[nH]cnc2c(O)cc(C3=CCCCC3)cc12 [Example 186, 6-Cyclohexenyl-8-hydroxyquinazolin-4(3H)-one]	–
710	O=c1[nH]cnc2c(O)cc(N3CCOCC3)cc12 [Example 187, 8-Hydroxy-6-morpholinoquinazolin-4(3H)-one]	–
1270	Cc1cn(C)c(-c2cc(O)c3nc[nH]c(=O)c3c2)n1 [Example 188, 6-(1,4-Dimethyl-1H-imidazol-2-yl)-8-hydroxyquinazolin-4(3H)-one]	–
840	O=c1[nH]cnc2c(O)cc(Oc3ccc(F)cc3)cc12 [Example 189, 6-(4-Fluorophenoxy)-8-hydroxyquinazolin-4(3H)-one]	–
–	CN1CCN(c2cc(O)c3nc[nH]c(=O)c3c2)CC1 [Example 190, 8-Hydroxy-6-(4-methyl-piperazin-1-yl)-3H-quinazolin-4-one]	1290
30	CN1CCN(C(=O)c2cccc(-c3cc(O)c4nc[nH]c(=O)c4c3)c2)CC1 [Example 191, 8-Hydroxy-6-[3-(4-methyl-piperazine-1-carbonyl)-phenyl]-3H-quinazolin-4-one]	–
20	O=C(c1cccc(-c2cc(O)c3nc[nH]c(=O)c3c2)c1)N1CCS(=O)(=O)CC1 [Example 192, 6-[3-(1,1-Dioxo-1λ^6-thiomorpholine-4-carbonyl)-phenyl]-8-hydroxy-3H-quinazolin-4-one]	–
1280	CN1CCN(C(=O)c2ccccc2-c2cc(O)c3nc[nH]c(=O)c3c2)CC1 [Example 193, 8-Hydroxy-6-[2-(4-methyl-piperazine-1-carbonyl)-phenyl]-3H-quinazolin-4-one]	–
730	O=C(c1ccccc1-c1cc(O)c2nc[nH]c(=O)c2c1)N1CCS(=O)(=O)CC1 [Example 194, 6-[2-(1,1-Dioxo-1λ^6-thiomorpholine-4-carbonyl)-phenyl]-8-hydroxy-3H-quinazolin-4-one]	–
10	O=c1[nH]cnc2c(O)cc(-c3ccc(F)cc3)c(F)c12 [Example 195, 5-Fluoro-6-(4-fluorophenyl)-8-hydroxyquinazolin-4(3H)-one]	–
120	O=c1[nH]cnc2c(O)cc(Br)c(F)c12 [Example 196, 6-Bromo-5-fluoro-8-hydroxyquinazolin-4(3H)-one]	–
2530	O=c1[nH]cnc2c(O)ccc(F)c12 [Example 197, 5-Fluoro-8-hydroxyquinazolin-4(3H)-one]	–
10	Cc1ncccc1-c1cc(O)c2nc[nH]c(=O)c2c1F [Example 198, 5-Fluoro-8-hydroxy-6-(2-methylpyridin-3-yl)quinazolin-4(3H)-one]	–
20	O=C(c1cccc(-c2cc(O)c3nc[nH]c(=O)c3c2)c1)N1CCC(F)(F)CC1 [Example 199, 6-[3-(4,4-Difluoro-piperidine-1-carbonyl)-phenyl]-8-hydroxy-3H-quinazolin-4-one]	–
10	O=C(c1ccc(-c2cc(O)c3nc[nH]c(=O)c3c2)cc1)N1CCC(F)(F)CC1 [Example 200, 6-[4-(4,4-Difluoro-piperidine-1-carbonyl)-phenyl]-8-hydroxy-3H-quinazolin-4-one]	–
20	O=c1[nH]cnc2c(O)c(F)c(-c3ccc(F)cc3)cc12 [Example 201, 7-Fluoro-6-(4-fluorophenyl)-8-hydroxyquinazolin-4(3H)-one]	–
20	Cc1ccc(-c2cc(O)c3nc[nH]c(=O)c3c2)c(C)n1 [Example 202, 6-(2,6-Dimethyl-pyridin-3-yl)-8-hydroxy-3H-quinazolin-4-one]	–
10	Cc1nc(-c2ccccc2)sc1-c1cc(O)c2nc[nH]c(=O)c2c1 [Example 203, 8-Hydroxy-6-(4-methyl-2-phenylthiazol-5-yl)quinazolin-4(3H)-one]	–
20	Cc1c(-c2cc(O)c3nc[nH]c(=O)c3c2)cnn1-c1ccccc1 [Example 204, 8-Hydroxy-6-(5-methyl-1-phenyl-1H-pyrazol-4-yl)quinazolin-4(3H)-one]	–
170	Cc1n[nH]cc1-c1cc(O)c2nc[nH]c(=O)c2c1 [Example 205, 8-Hydroxy-6-(3-methyl-1H-pyrazol-4-yl)quinazolin-4(3H)-one]	–
30	Cc1c(-c2cc(O)c3nc[nH]c(=O)c3c2)cnn1C [Example 206, 6-(1,5-Dimethyl-1H-pyrazol-4-yl)-8-hydroxyquinazolin-4(3H)-one]	–
